Reference: patent US6914045B2, “Glycopeptide antibiotics” (Wyeth Holdings Corporation, priority 2001, dated 2005)
Converted amounts (≈) assume the structure as drawn.

Key:
Experiment in all cases: in vitro antibacterial evaluation, MIC by broth dilution
Format in all cases: cell-based
[1] = test system: Enterococcus sp.; details: broth dilution, 18 hours at 35° C.
Outline: (§1)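 Test organisms, which included recent clinical isolates resistant to methicillin, penicillin and/or vancomycin, were inoculated at 5×10^5 CFU/mL into Muller-Hinton II […] containing antibiotic at 64-0.06 μg/mL. Minimum inhibitory concentrations were then read as the lowest level inhibiting growth.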

[2] = test system: Escherichia coli
Outline: as §1

[3] = test system: Staphylococcus sp.; details: broth dilution, 18 hours at 35° C.; for MIC Staphylococcus aureus (GC 1131): strain GC 1131
Outline: as §1

[4] = test system: Streptococcus sp.; details: broth dilution, 18 hours at 35° C.
Outline: as §1

MIC Enterococcus avium (GC 4558) ([1]; Enterococcus avium (GC 4558)): 64 µg/mL (≈ 44.3 µM) | MIC Enterococcus faecalis (ATCC 29212) ([1]; Enterococcus faecalis (ATCC 29212)): >64 µg/mL | MIC Enterococcus faecalis (GC 2242) ([1]; Enterococcus faecalis (GC 2242)): >64 µg/mL | MIC Enterococcus faecalis (GC 2691) ([1]; Enterococcus faecalis (GC 2691)): >64 µg/mL | MIC Enterococcus faecalis (GC 3059) ([1]; Enterococcus faecalis (GC 3059)): >64 µg/mL | MIC Enterococcus faecalis (GC 4552) ([1]; Enterococcus faecalis (GC 4552)): >64 µg/mL | MIC Enterococcus faecalis (GC 4553) ([1]; Enterococcus faecalis (GC 4553)): >64 µg/mL | MIC Enterococcus faecalis (GC 4554) ([1]; Enterococcus faecalis (GC 4554)): >64 µg/mL | MIC Enterococcus faecalis (GC 6189) ([1]; Enterococcus faecalis (GC 6189)): >64 µg/mL | MIC Enterococcus faecium (GC 2243) ([1]; Enterococcus faecium (GC 2243)): >64 µg/mL | MIC Enterococcus faecium (GC 4556) ([1]; Enterococcus faecium (GC 4556)): >64 µg/mL | MIC Enterococcus faecium (GC 4557) ([1]; Enterococcus faecium (GC 4557)): 16 µg/mL (≈ 11.1 µM) | MIC Enterococcus faecalis (ATCC 29212) ([1]; strain ATCC 29212): >64 µg/mL | MIC Enterococcus faecalis (GC 2242) ([1]; strain GC 2242): >64 µg/mL | MIC Enterococcus faecium (GC 2243) ([1]; strain GC 2243): >64 µg/mL | MIC Enterococcus faecalis (GC 2691) ([1]; strain GC 2691): >64 µg/mL | MIC Enterococcus faecalis (GC 3059) ([1]; strain GC 3059): >64 µg/mL | MIC Enterococcus faecalis (GC 4552) ([1]; strain GC 4552): >64 µg/mL | MIC Enterococcus faecalis (GC 4553) ([1]; strain GC 4553): >64 µg/mL | MIC Enterococcus faecalis (GC 4554) ([1]; strain GC 4554): >64 µg/mL | MIC Enterococcus faecium (GC 4556) ([1]; strain GC 4556): >64 µg/mL | MIC Enterococcus faecium (GC 4557) ([1]; strain GC 4557): 16 µg/mL (≈ 11.1 µM) | MIC Enterococcus avium (GC 4558) ([1]; strain GC 4558): 64 µg/mL (≈ 44.3 µM) | MIC Enterococcus faecalis (GC 6189) ([1]; strain GC 6189): >64 µg/mL | MIC Escherichia coli (ATCC 25922) ([2]; strain ATCC 25922, 18 hours at 35° C.): >64 µg/mL | MIC Escherichia coli (GC 4559) ([2]; strain GC 4559, 18 hours at 35° C.): >64 µg/mL | MIC Escherichia coli (GC 4560) ([2]; strain GC 4560, 18 hours at 35° C.): 16 µg/mL (≈ 11.1 µM) | MIC Staphylococcus aureus (GC 1131) ([3]; inoculum 5×10^5 CFU/mL): 32 µg/mL (≈ 22.2 µM) | MIC Staphylococcus aureus (ATCC 29213) ([3]; strain ATCC 29213): 32 µg/mL (≈ 22.2 µM) | MIC Staphylococcus aureus (GC 1131) [3]: 32 µg/mL (≈ 22.2 µM) | MIC Staphylococcus aureus (GC 3051) ([3]; strain GC 3051): 32 µg/mL (≈ 22.2 µM) | MIC Staphylococcus aureus (GC 3053) ([3]; strain GC 3053): 32 µg/mL (≈ 22.2 µM) | MIC Staphylococcus aureus (GC 4541) ([3]; strain GC 4541): 16 µg/mL (≈ 11.1 µM) | MIC Staphylococcus aureus (GC 4542) ([3]; strain GC 4542): 32 µg/mL (≈ 22.2 µM) | MIC Staphylococcus aureus-SMITH (GC 4543) ([3]; strain GC 4543): 16 µg/mL (≈ 11.1 µM) | MIC Staphylococcus aureus (GC 4544) ([3]; strain GC 4544): 32 µg/mL (≈ 22.2 µM) | MIC Staphylococcus aureus (GC 4545) ([3]; strain GC 4545): 16 µg/mL (≈ 11.1 µM) | MIC Coagulase Negative Staphylococcus (GC 4547) ([3]; strain GC 4547): 16 µg/mL (≈ 11.1 µM) | MIC Coagulase Negative Staphylococcus (GC 4548) ([3]; strain GC 4548): 8 µg/mL (≈ 5.54 µM) | MIC Coagulase Negative Staphylococcus (GC 4549) ([3]; strain GC 4549): 8 µg/mL (≈ 5.54 µM) | MIC Coagulase Negative Staphylococcus (GC 4551) ([3]; strain GC 4551): 32 µg/mL (≈ 22.2 µM) | MIC Coagulase Negative Staphylococcus (GC 6257) ([3]; strain GC 6257): 8 µg/mL (≈ 5.54 µM) | MIC Staphylococcus aureus-SMITH (GC 4543) ([3]; strain SMITH GC 4543): 16 µg/mL (≈ 11.1 µM) | MIC Streptococcus agalactiae (GC 4564) ([4]; Streptococcus agalactiae (GC 4564)): 32 µg/mL (≈ 22.2 µM) | MIC Streptococcus pneumoniae (ATCC 6301) ([4]; Streptococcus pneumoniae (ATCC 6301)): 8 µg/mL (≈ 5.54 µM) | MIC Streptococcus pneumoniae (GC 1894) ([4]; Streptococcus pneumoniae (GC 1894)): 8 µg/mL (≈ 5.54 µM) | MIC Streptococcus pneumoniae (GC 4565) ([4]; Streptococcus pneumoniae (GC 4565)): 16 µg/mL (≈ 11.1 µM) | MIC Streptococcus pyogenes (GC 4563) ([4]; Streptococcus pyogenes (GC 4563)): 16 µg/mL (≈ 11.1 µM) | MIC Streptococcus pneumoniae (ATCC 6301) ([4]; strain ATCC 6301): 8 µg/mL (≈ 5.54 µM) | MIC Streptococcus pneumoniae (GC 1894) ([4]; strain GC 1894): 8 µg/mL (≈ 5.54 µM) | MIC Streptococcus pyogenes (GC 4563) ([4]; strain GC 4563): 16 µg/mL (≈ 11.1 µM) | MIC Streptococcus agalactiae (GC 4564) ([4]; strain GC 4564): 32 µg/mL (≈ 22.2 µM) | MIC Streptococcus pneumoniae (GC 4565) ([4]; strain GC 4565): 16 µg/mL (≈ 11.1 µM)
Compound: COc1cc(OC)cc(C2OC3C(OC4C(CO)OC(Oc5ccc(CC6NC(=O)C(C(C)c7ccccc7)NC(=O)CNC(=O)C(CO)NC(=O)C(C(O)C7CNC(=N)N7C7OC(CO)C(O)C(O)C7O)NC(=O)C(C(O)C7CNC(=N)N7)NC6=O)cc5)C(O)C4O)OC(CO)C(O)C3O2)c1 (stereo not drawn) [Example 150a]
MIC Staphylococcus haemolyticus (GC 4546) ([3]; strain GC 4546): 16 µg/mL (≈ 11.1 µM)
